Legend:
[1] = test system: blue-stain fungi and molds; experiment: Activity against blue-stain fungi and molds on a stick test on vermiculite (paint film); parameters: key to Surface score of wooden sticks treated with paint formulation, C. cladosporioides / Surface score of wooden sticks treated with paint formulation, P. purpurogenum / Surface score of wooden sticks treated with paint formulation, P. violacea / Surface score of wooden sticks treated with paint formulation, R rubra (y) / Surface score of wooden sticks treated with paint formulation, S. chartarum / Surface score of wooden sticks treated with paint formulation, A. versicolor / Surface score of wooden sticks treated with paint formulation, A. pullulans: 0: No growth; Trace of growth of up to 1% coverage of the test inoculated area; 2: Growth covering between 1 and 10% of the inoculated test area; Growth covering between 10 and 30% of the inoculated test area; 4: Growth covering between 30 and 70% of the inoculated test area; 5: Growth covering more than 70t of the inoculated test area; conditions: 12 weeks on vermiculite; for Surface score of wooden sticks treated with paint formulation, R rubra (y): R rubra (yeast)
Procedure, shortened: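 Painted, γ-sterilised beech sticks dipped in spore suspensions of each fungus, then held on moist vermiculite for 12 weeks. Surface fungal growth scored visually on a 0 (none) to 5 (over 70% of inoculated area) scale.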

[2] = test system: mixed spore suspension of blue-stain fungus and molds; experiment: Activity against blue-stain fungi and molds in a mold cabinet test (BS3900: Part G6); parameters: key: 0: No growth; Trace of growth of up to 1% coverage of the test inoculated area; 2: Growth covering between 1 and 10% of the inoculated test area; Growth covering between 10 and 30% of the inoculated test area; 4: Growth covering between 30 and 70% of the inoculated test area; 5: Growth covering more than 70t of the inoculated test area
Procedure, shortened: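 Painted Scots pine sticks, sterilized by irradiation, were treated with compound solutions, dipped in mixed spore suspension and held in a mold chamber for 12 weeks. Surface growth scored 0 (none) to 5 (>70% of inoculated area covered).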

Row | Compound | Surface score of wooden sticks treated with paint formulation, A. pullulans ([1]; 0.15% a.i. in paint) | Surface score of wooden sticks treated with paint formulation, A. pullulans ([1]; 0.3% a.i. in paint) | Surface score of wooden sticks treated with paint formulation, A. versicolor ([1]; 0.15% a.i. in paint) | Surface score of wooden sticks treated with paint formulation, A. versicolor ([1]; 0.3% a.i. in paint) | Surface score of wooden sticks treated with paint formulation, C. cladosporioides ([1]; 0.15% a.i. in paint) | Surface score of wooden sticks treated with paint formulation, C. cladosporioides ([1]; 0.3% a.i. in paint) | Surface score of wooden sticks treated with paint formulation, P. purpurogenum ([1]; 0.15% a.i. in paint) | Surface score of wooden sticks treated with paint formulation, P. purpurogenum ([1]; 0.3% a.i. in paint) | Surface score of wooden sticks treated with paint formulation, P. violacea ([1]; 0.15% a.i. in paint) | Surface score of wooden sticks treated with paint formulation, P. violacea ([1]; 0.3% a.i. in paint) | Surface score of wooden sticks treated with paint formulation, R rubra (y) ([1]; 0.15% a.i. in paint) | Surface score of wooden sticks treated with paint formulation, R rubra (y) ([1]; 0.3% a.i. in paint) | Surface score of wooden sticks treated with paint formulation, S. chartarum ([1]; 0.15% a.i. in paint) | Surface score of wooden sticks treated with paint formulation, S. chartarum ([1]; 0.3% a.i. in paint) | Surface score of wooden sticks treated with paint formulation, U. atrum ([1]; 0.15% a.i. in paint) | Surface score of wooden sticks treated with paint formulation, U. atrum ([1]; 0.3% a.i. in paint) | Surface score in a paint formulation in a mold cabinet test, 6 weeks ([2]; 0.15% in water-based paint) | Surface score in a paint formulation in a mold cabinet test, 12 weeks ([2]; 0.15% in water-based paint) | Surface score in a paint formulation in a mold cabinet test, 6 weeks ([2]; 0.3% in water-based paint) | Surface score in a paint formulation in a mold cabinet test, 12 weeks ([2]; 0.3% in water-based paint)
1 | [O-][S+]1CCON=C1c1cccs1 (stereo not shown) [Compound 8] | 0 | 0 | 0 | 0 | 0 | 0 | 0 | 0 | 4 (Growth covering between 30 and 70% of the inoculated test area) | 0 | 1 (Trace of growth of up to 1% coverage of the test inoculated area) | 1 (Trace of growth of up to 1% coverage of the test inoculated area) | 0 | 0 | 1 (Trace of growth of up to 1% coverage of the test inoculated area) | 1 (Trace of growth of up to 1% coverage of the test inoculated area) | 0 | 2.0 | 0 | 1.5
2 | O=S1(=O)CCON=C1c1cccs1 [Compound 34] | 0 | 0 | 0 | 0 | 0 | 0 | 4 (Growth covering between 30 and 70% of the inoculated test area) | 1 (Trace of growth of up to 1% coverage of the test inoculated area) | 4 (Growth covering between 30 and 70% of the inoculated test area) | 1 (Trace of growth of up to 1% coverage of the test inoculated area) | 3 (Growth covering between 10 and 30% of the inoculated test area) | 0 | 1 (Trace of growth of up to 1% coverage of the test inoculated area) | 0 | 3 (Growth covering between 10 and 30% of the inoculated test area) | 1 (Trace of growth of up to 1% coverage of the test inoculated area) | 0.5 | 1.5 | 0 | 1.0
